Data on 70 compounds can be found in PubChem BioAssay AID449762 (Southern Research Specialized Biocontainment Screening …, 2010).

Molecules are shown by their SMILES. Records with an inconclusive call do not appear.

The assay relates to M. tuberculosis H37Rv growth inhibition, 7H9 media. Put plainly: M. tuberculosis growth inhibition, HTS (AID 449762).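 On all read-outs here: bacterial growth assessed after seven days of incubation.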 As to conditions: for IC90: measured here: IC90 growth inhibition.

`COC(=O)C1=C(c2ccc(OCc3ccccc3)cc2)C[C@@H]2CC[C@H]1N2C(=O)NC1CCN(Cc2ccccc2)CC1`: the IC50 – broadly, the concentration needed to halve the response being measured – was 24.4 µM and the IC90 (usually the concentration needed for an effect of 90%) is 27.5 µM.

`Cc1ccc(S(=O)(=O)NCc2ccc(C(=O)NCCCN3CCC(Cc4ccccc4)CC3)cc2)cc1`: the half-inhibitory concentration (IC50) is 79.8 µM and the IC90 was greater than 100 µM.

For the compound `Cc1ccc(CN2C3CCCC2CC(NC(=S)NCc2ccccc2)C3)cc1` (stereo unspecified), the IC50 is 45.8 µM and the IC90 amounted to 52.4 µM.

Turning to `CCCC(NCC(O)COc1ccc(-c2ccccc2)cc1)c1ccccc1` (stereo unspecified), the half-maximal inhibitory concentration (IC50) is 11.5 µM and the concentration for an effect of 90% (IC90) worked out at 14.9 µM.

For the compound `CCc1ccc(NC(=S)/N=C(\N)Nc2nc(C)c3cc(CC)ccc3n2)cc1`, the concentration for half-maximal inhibition (IC50) is 7.31 µM and the IC90 stood at 40 µM.

For `O=Nc1c2nc3ccccc3n(O)c-2c2ccccc12`, the concentration for half-maximal inhibition (IC50) was 10.7 µM and the IC90 came out at 15.7 µM.

With `Clc1ccc(Nc2ccc(-n3ccnc3)nn2)cc1Cl`, the IC50 is 18.9 µM and the IC90 turned out to be 25.3 µM.

Regarding `CCOC(=O)CSc1nn(-c2ccccc2)c(=S)s1`, the half-maximal inhibitory concentration (IC50) is 4.75 µM and the IC90 is 9.22 µM.

As to `CCOc1cccc2cc(C(=O)Nc3nccs3)c(=O)oc12`, the IC50 was 0.34 µM and the IC90 is 29.6 µM.

On to `Cc1cc2cc(CNC(=O)NC3CCCCC3)ccc2[nH]1`, for which the IC50 was 23.3 µM and the IC90 came to 50.9 µM.

For the compound `O=C(/C=C/c1ccccc1)N1CCN(CCN2C(=O)c3cccc4cccc(c34)C2=O)CC1`, the IC50 is 1.95 µM and the IC90 amounted to 3.87 µM.

In the case of `C[n+]1c(-c2ccccc2)c2cc(N)ccc2c2ccc(N)cc21`, the half-inhibitory concentration (IC50) is 7.95 µM and the IC90 was found to be 10.2 µM.

As to `CN1CC=C(/C=C/c2ccc(-c3ccccc3)cc2)CC1`, the IC50 was 20.1 µM and the IC90 worked out at 26.9 µM.

Regarding `COc1cnc(-c2ccccn2)nc1Oc1ccc(Cl)c2ccccc12`, the IC50 is less than 0.2 µM and the concentration for an effect of 90% (IC90) was found to be 2.86 µM.

As to `O=[N+]([O-])c1ncccc1Oc1nc(-c2cccnc2)nc2ccccc12`, the IC50 is less than 0.2 µM and the IC90 came out at 1.36 µM.

`Clc1ccc(-c2[nH]ncc2N=Nc2ccccc2)cc1`: the IC50 is 31.7 µM and the IC90 was greater than 100 µM.

`Cc1nc(N2CCC(C)CC2)c2oc3ccccc3c2n1`: the IC50 was 24 µM and the IC90 was 45.4 µM.

Turning to `c1ccc(C[C@H]2CN=C(Nc3ccccc3)N2CCCC2CCCC2)cc1`, the IC50 was 31.4 µM and the IC90 came to 48.5 µM.

`CCc1c(C)sc2nc3c(C(=O)N4CCOCC4)cc(C(=O)c4cc(F)ccc4O)cn3c(=O)c12`: the IC50 was 47.3 µM and the concentration for an effect of 90% (IC90) was greater than 100 µM.

Regarding `CC(OC(=O)c1cc(Cl)ccc1[N+](=O)[O-])C(=O)NC(C)c1ccc(F)cc1` (stereo unspecified), the IC50 was 22.8 µM and the IC90 stood at 26 µM.

With `CCC1=C(OC(=O)N(CC)CC)N2C(=O)OC(=NCCc3c[nH]c4ccccc34)[C@]2(Cc2ccccc2)[C@H]2C1=CC[C@H]1C(=O)NC(=O)[C@H]12`, the IC50 was 30.7 µM and the IC90 came to 44.8 µM.

With `O=C(CSc1nc2ccccc2nc1N1CCOCC1)N1CCN(c2ccccc2)CC1`, the IC50 was 11.4 µM and the IC90 stood at 13.2 µM.

As to `C/C(=N\Nc1ccc([N+](=O)[O-])cc1)c1cccc(N)c1`, the IC50 is 62.9 µM and the IC90 turned out to be 88.3 µM.

For `Cc1ccc(OCCCCNC2CCCC(C)C2C)c(C)c1` (stereo unspecified), the IC50 is 21.8 µM and the concentration for an effect of 90% (IC90) amounted to 24.2 µM.

Turning to `CCCCOC(=O)NS(=O)(=O)c1sc(CC(C)C)cc1-c1ccc(Cn2c(CC)nc3c(C)cc(C)nc32)cc1`, the IC50 was 26.4 µM and the IC90 was 35.4 µM.

As for `O=C(Nc1ccc(C2=NCCN2)cc1)c1ccc(Cl)c(C(=O)Nc2ccc(C3=NCCN3)cc2)c1`, the half-maximal inhibitory concentration (IC50) was 11.3 µM and the IC90 was 12.3 µM.

Take `N/C(=N\NC(=O)c1sccc1OCc1ccc(Cl)cc1Cl)c1ccccn1`: the IC50 was 15.7 µM and the IC90 is 46 µM.

As for `CC1CC(C)CN(C(=O)C2CCC(CNc3c(N4CCCCC4)c(=O)c3=O)CC2)C1` (stereo unspecified), the IC50 is 19.3 µM and the IC90 came to 71.7 µM.

`CCCC12CN3CC(CCC)(CN(C1)C3c1ccccn1)C2=O` (stereo unspecified): the IC50 is 1.02 µM and the IC90 came to 18.1 µM.

Consider `COc1ccc(-c2cc3n(n2)CCc2nc4ccccc4n2-3)cc1`, for which the half-inhibitory concentration (IC50) is 1.06 µM and the concentration for an effect of 90% (IC90) was found to be 5.92 µM.

Turning to `CCOC(=O)N1CCN(c2nc(N(c3ccccc3)c3ccccc3)nc(-n3ccnc3)n2)CC1`, the IC50 is 92.7 µM and the IC90 was greater than 100 µM.

For the compound `Cc1ccc(S(=O)(=O)N2CCC(C(=O)OCc3ccccc3)CC2)cc1C`, the IC50 was 22.1 µM and the IC90 was 40.6 µM.

As for `COc1ccc(CN2CCCC(C(=O)c3ccc(SC)cc3)C2)cc1Cn1cccn1` (stereo unspecified), the IC50 is 23.9 µM and the IC90 is 26.6 µM.

Consider `COc1cc2nc(N3CCN(c4cc(C)ccc4C)CC3)nc(N)c2cc1OC`, for which the half-inhibitory concentration (IC50) was 13.8 µM and the 90% effect concentration (IC90) is 15.8 µM.

For the compound `O=C(CSc1n[nH]c(-c2ccccc2)n1)Nc1ccc(Br)cn1`, the IC90 is greater than 100 µM.

Regarding `Cc1ccc(N/N=C/C=C/c2ccco2)cc1`, the concentration for half-maximal inhibition (IC50) was 61.2 µM and the IC90 came out at 98.2 µM.

Take `CCOC(=O)c1cc(-c2ccccc2)nc2c1c(C)nn2-c1ccccn1`: the IC50 was 2.97 µM and the IC90 came to 27.2 µM.

On to `Cc1c(Cl)cccc1-c1ccc(CNCc2ccccn2)o1`, for which the IC50 is 0.7 µM and the IC90 was 4.03 µM.

`CNC(=S)Nc1ccc(N2CCN(c3ccc(C(F)(F)F)cn3)CC2)nc1`: the IC50 was 9.93 µM and the IC90 is greater than 100 µM.

Take `COc1ccccc1NC(=O)CN1CCN(CC(=O)Nc2ccc3c(c2)OCO3)CC1`: the IC50 is 14.8 µM and the IC90 is 33.6 µM.

Consider `CC(=O)c1c(C)n(C)c2ccc(OC(=O)c3ccc([N+](=O)[O-])cc3)cc12`, for which the 50% inhibitory concentration (IC50) was 11.2 µM and the IC90 was greater than 100 µM.

As for `CC1CCCC(C)N1/N=C/c1c[nH]c2ccc(Br)cc12` (stereo unspecified), the 50% inhibitory concentration (IC50) was 23.3 µM and the IC90 amounted to 26.3 µM.

Take `CCCCCc1nc2c(c(=O)c3ccccc3n2C)c(=O)n1C1CCCCCC1`: the IC50 was 30 µM and the IC90 is greater than 100 µM.

On to `O=C(OCn1ncc(Br)c(Br)c1=O)c1ccc(F)cc1`, for which the IC50 was 1.17 µM and the IC90 came out at 3.58 µM.

With `O=C(OCC#CCSc1nnc(-c2cccc3ccccc23)o1)c1cccs1`, the IC50 is 35.5 µM and the 90% effect concentration (IC90) came out at 63.9 µM.

In the case of `Oc1cc(NCc2cccnc2)ccc1-c1nc2ccccc2o1`, the IC50 was 12.6 µM and the IC90 turned out to be 44.4 µM.

As for `CC(C)C[C@H]1C(=O)N2CCC[C@H]2[C@]2(O)O[C@](NC(=O)C3C=C4c5cccc6[nH]c(Br)c(c56)C[C@H]4N(C)C3)(C(C)C)C(=O)N12` (stereo partly specified), the IC90 is greater than 100 µM.

With `Cc1ccc(C(=O)N2N=C(c3ccc(NS(C)(=O)=O)cc3)CC2c2cccs2)cc1` (stereo unspecified), the IC50 is 12.4 µM and the IC90 was determined as 21.2 µM.

In the case of `CC[C@H](C)[C@@H]1O[C@@]2(C=CC1C)CC1C[C@@H](CC=C(C)C(O[C@H]3CC(OC)C(O[C@H]4CC(OC)C(O)C(C)O4)C(C)O3)C(C)C=CC=C3CO[C@@H]4C(O)C(C)=C[C@@H](C(=O)O1)[C@]34O)O2` (stereo partly specified), the IC50 was 12.7 µM and the IC90 worked out at 18.1 µM.

For `COc1ccc(-c2oc3ccc(-c4ccc(OC)nc4)cc3c2C#CC2(O)CCCCC2)cc1`, the IC50 was 96.2 µM and the IC90 was greater than 100 µM.

Turning to `COc1cc(/C=C/c2cc[n+](C)cc2)ccc1OCC(=O)Nc1ccc(Cl)c(Cl)c1`, the IC50 is 21.7 µM and the IC90 amounted to 23.5 µM.

Take `CCOC(=O)CSC1=C(C#N)C(c2ccc(C)cc2)C2=C(CCCC2=O)N1` (stereo unspecified): the concentration for half-maximal inhibition (IC50) is 43.9 µM and the IC90 was greater than 100 µM.

Regarding `CC1CCCN(Cc2c(O)ccc3c(=O)c(-c4nc5ccccc5s4)c(N)oc23)C1` (stereo unspecified), the IC50 was 9.7 µM and the IC90 was 12.7 µM.

Consider `C=CCc1cc(C)ccc1OCCCC(C(=O)OCC)C(=O)OCC`, for which the IC50 was 9.72 µM and the IC90 came to 21.4 µM.

Turning to `O=C(CCl)N1CCCC1c1ccc2c(c1)OCCO2` (stereo unspecified), the IC50 is 3.45 µM and the IC90 worked out at 9.07 µM.

In the case of `CCc1cc2c(=O)c(-c3cnn(-c4ccccc4)c3)c(C)oc2c(CN2CCCCC2)c1O`, the IC50 was 2.58 µM and the IC90 was determined as 21.7 µM.

For `O=c1/c(=C\c2ccc(O)cc2)sc2n1C(c1ccccc1)C(c1ccccc1)=NN=2` (stereo unspecified), the IC50 was 55.7 µM and the IC90 is 87.2 µM.

As for `CCCNC(=O)NC(=O)COc1ccc2oc3ccccc3c2c1`, the IC90 was greater than 100 µM.

On to `O=C(NNC1CC(=O)N(c2ccc(Br)cc2)C1=O)c1ccccn1` (stereo unspecified), for which the half-maximal inhibitory concentration (IC50) was 5.9 µM and the IC90 came out at 13.6 µM.

Turning to `COc1cc(OC)c(OC)cc1CCC(C)NCCC(c1ccccc1)c1ccccc1` (stereo unspecified), the IC50 is 22.3 µM and the concentration for an effect of 90% (IC90) stood at 25 µM.

For the compound `O=C(CN1CCN(C(=O)COc2cccc(F)c2)CC1)Nc1ccc(Cl)c(C(F)(F)F)c1`, the IC50 is 49 µM and the IC90 is 55.4 µM.

With `CC1(O)CC(c2ccc(Cl)cc2)=NN1C(=O)c1ccc([N+](=O)[O-])cc1` (stereo unspecified), the IC50 was 17.5 µM and the IC90 was greater than 100 µM.

On to `N#Cc1nccnc1S(=O)(=O)c1cccs1`, for which the IC50 is 40.6 µM and the IC90 stood at 61.1 µM.

On to `C/C(=N\NC(=O)c1ccc(O)cc1)c1ccc2c(c1)Nc1ccccc1S2`, for which the half-inhibitory concentration (IC50) was 24.8 µM and the IC90 was found to be 62.8 µM.

Take `Cc1[nH]c2ccccc2c1C(=O)COC(=O)c1ccc([N+](=O)[O-])s1`: the IC50 is 0.59 µM and the IC90 was 2 µM.

On to `CC(C)(C)c1csc(NC(=O)c2c(F)c(F)c(F)c(F)c2F)n1`, for which the IC50 is 17.7 µM and the IC90 stood at 25.2 µM.

Regarding `O=C1C=C(c2ccc3[nH]ccc3c2)C[C@@H](c2ccc(Cl)cc2)C1`, the IC50 is 75.3 µM and the IC90 was greater than 100 µM.

Regarding `COc1ccc(C(C(O)C(=O)c2c[nH]c3ccccc23)N2CCN(c3ccc(OC)cc3)CC2)cc1` (stereo unspecified), the IC50 was 100 µM and the IC90 was greater than 100 µM.

Regarding `Oc1ccc(CN2CCc3ccccc3C2)c2cccnc12`, the 50% inhibitory concentration (IC50) is 61.5 µM and the 90% effect concentration (IC90) is greater than 100 µM.

`COc1ccc(NC(=O)ON=C2c3ccccc3-c3ccccc32)cc1` yielded an IC90 greater than 100 µM.
